The text below walks through data of publication PMC11402852, “Genotoxicity of selected cannabinoids in human lymphoblastoid TK6 cells” (Archives of Toxicology, 2024).

In data set [1] the test system is human lymphoblastoid TK6 cells. The data set can be described thus: Kinetochore analysis of micronuclei. The following applies: 4 h; for Kinetochore (+) MNi, %: of 200 micronuclei, CBG 30 µM, CBD 15 µM, CBC 15 µM, CBDV 40 µM, CBN 15 µM, MMS 40 µM, vincristine 0.0121 µM, one experiment. It counts as cell-based. The procedure: For kinetochore analysis, cells were treated for 4 h with CBG 30 µM, CBD 15 µM, CBC 15 µM, CBDV 40 µM, and CBN 15 µM. The positive controls were MMS 40 µM, and vincristine sulphate 0.0121 µM; the solvent control was DMSO. After 4 h of treatment, the culture medium was renewed, and cells were exposed for 24 h to the cytokinesis inhibitor cytochalasin B (3 μg/mL). Then, cells were harvested, and slides were prepared with cytospin centrifugation. The cells were fixed in ice-cold methanol for 2 h. Kinetochores were stained overnight with undiluted primary anti-centromere antibody at 37 °C followed by 1:20 diluted FITC-conjugated secondary antibody at 37 °C for 2 h. Nuclei were counterstained with Hoechst 33,258 (5 µg/mL, 3 min). The experiment was performed one time. Per compound, 200 micronuclei were evaluated for kinetochore signal presence (Fig. 3). The evaluation was performed with a Keyence BZ-X800 microscope. The slides used in kinetochore evaluation were also evaluated for the number of induced micronuclei as described in the above paragraph cytokinesis‑block micronucleus assay.

Details of data set [2]: method as in Peters et al. [2022]. Conditions: after consuming medical cannabis oil, ref Peters et al. [2022], cited from earlier work.
In data set [3] the test system is TK6 cells. The experiment in a line: Tubulin visualization. It counts as cell-based, human. Conditions: 6 h; CBG 30 µM, CBD 15 µM, CBC 15 µM, CBN 15 µM; visually compared to control, not quantified. The procedure: For tubulin visualization, cells were treated with CBG 30 µM, CBD 15 µM, CBC 15 µM, CBDV 40 µM, and CBN 15 µM. The positive control was vincristine sulphate 0.0121 µM, and the solvent control was DMSO. Cells were treated for 6 h and then harvested. Slides were prepared with cytospin centrifugation. The cells were fixed in ice-cold methanol for 2 h. Following fixation, cells were permeabilized with 0.1% Tween20 in 1 × phosphate-buffered saline (PBS) for 5 min. Next, the anti-α-tubulin antibody was applied in 1:50 dilution. Antibody was diluted with 5% FCS in 1 × PBS. The antibody was incubated in a humid chamber at 4 °C for 24 h. Afterwards, the antibody was removed by washing slides twice with 0.5% Tween20 in 1 × PBS for 5 min. Nuclei were counterstained with Hoechst 33,258 (5 µg/mL, 3 min). The visualization was performed with a Keyence BZ-X800 microscope.

For data set [4], the system named is TK6 cells. The data set can be described thus: Cell cycle analysis (flow cytometry, DAPI). It counts as cell-based, human. The procedure:
The cells were treated with CBG 30 µM, CBD 15 µM, CBC 15 µM, CBDV 40 µM, and CBN 15 µM for 6 or 24 h. The positive control was vincristine sulphate in a concentration of 0.0121 µM for 6 h of exposure and 0.0061 µM for 24 h. The solvent control was DMSO. Furthermore, experiments with the addition of S9 mix were performed with CBDV. In these experiments, cells were treated with CBDV (40 µM) with or without 0.25% S9 mix for 6 h. DMSO with or without the S9 mix was used as control, and the positive control was the same as mentioned above. After the treatment, cells were collected, washed twice with phosphate buffered saline (PBS) and fixed with 70% ethanol for 30 min on ice. Following each described step above, cells were centrifuged at 1000 rpm, 5 min, and 4 °C. Lastly, cells were resuspended in 1% bovine serum albumin (BSA) in PBS solution and stained with DAPI in a final concentration of 1 µg/mL for 30 min on ice. The cell distribution in different cell cycle phases was analyzed with MACSQuant® Analyzer 16 Flow Cytometer using a 450/50 nm filter and MACSQuantify™ Software 2.13 (Miltenyi Biotec, Bergisch Gladbach, Germany). For each sample, 20 000 events were analyzed. Four independent experiments were performed for 6 h of treatment without metabolic activation. Three independent experiments were done for 24 h of treatment without metabolic activation and 6 h of treatment with metabolic activation.

Data set [5] has as its system human lymphoblastoid TK6 cells. The data set can be described thus: Cytokinesis-block micronucleus (CBMN) assay. The following applies: for BMDL (10th percentile): 10th percentile of BMD50 estimation; for BMDL (10th percentile) / BMDU (90th percentile) / Number of micronuclei with S9 mix vs without: 4 h; for BMDL (10th percentile) / BMDU (90th percentile): micronucleus data; for 4 h BMD50: 50% increased relative genotoxicity vs controls, from micronucleus data, without S9, Bayesian BMD analysis; for 4 h BMD50 / Micronucleus induction: 4 h treatment; for BMDU (90th percentile): 90th percentile of BMD50 estimation; for Number of micronuclei with S9 mix vs without: CBG 30 µM, CBD 15 µM, CBC 15 µM, CBDV 40 µM, CBN 15 µM, 0.25% S9 mix; for Micronucleus induction: without metabolic activation, at least one concentration, vs solvent control.

The subject of data set [6] is adult neural stem/progenitor cells. More on the design: method as in Lourenço et al. ([2023]). Conditions: 7 days of exposure; phase not indicated; ref Lourenço et al. ([2023]); cited from earlier work.
In data set [7] the test system is human buccal cell line TR146. More on the design: method as in Russo et al. ([2019]). The following applies: TR146, after 3 and 24 h; ref Russo et al. ([2019]); cited from earlier work.
Details of data set [8]: method as in Hurley et al. ([2022]). The following applies: epilepsy treatment in children, ref Hurley et al. ([2022]), cited from earlier work.
The test system of data set [9] is human lymphoblastoid TK6 cells. The following applies: for 4 h BMD50 / BMDL (10th percentile) / BMDU (90th percentile): human, 4 h.
The subject of data set [10] is human mesothelioma, cholangiocellular carcinoma and ovarian carcinoma cell lines. On the set-up: method as in earlier work. The following applies: 24 h of treatment; correlates with decrease of cell percentage in S phase; ref Viereckl et al. [2022]; Colvin et al. [2022]; Sooda et al. [2023]; cited from earlier work.
The conditions of data set [11]: frequent Cannabis smokers, inhalation, ref Newmeyer et al. [2016], cited from earlier work; for Cmax: read-out: Mean maximum concentration (Cmax) in blood.
Details of data set [12]: method as in Zhong et al. [2023]. Conditions: depending on the cell line; downregulating CDK1, CDK2 and cyclin E; ref Zhong et al. [2023]; cited from earlier work.
Data set [13] relates to TK6 cells. The data set can be described thus: Mitotic disturbance assay. It counts as cell-based, human. Conditions: 6 h, without S9; CBG 30 µM, CBD 15 µM, CBC 15 µM, CBDV 40 µM, CBN 15 µM; vs solvent control. The procedure: The cells were treated for 6 h with CBG 30 µM, CBD 15 µM, CBC 15 µM, CBDV 40 µM, and CBN 15 µM. The positive control was vincristine sulphate 0.0121 µM, and the solvent control was DMSO. For the experiments with or without the S9 mix (final concentration 0.25%), TK6 cells were treated with either CBDV 40 µM or vincristine sulphate 10 ng/mL for 6 h. DMSO with or without S9 mix was used as control. Further procedure was as described for micronucleus experiments, except with direct harvest after cannabinoid treatment without the incubation period with cytochalasin B. Two slides were evaluated with a Nikon Eclipse 55i fluorescent microscope for each experimental condition. The independent experiments were conducted three times.
The cells were counted in categories apoptosis, interphase, prophase, metaphase, anaphase-telophase, disturbed metaphase, and disturbed anaphase-telophase in 1000 cells. The mitotic index was calculated as a sum of the number of cells in prophase, metaphase, anaphase-telophase, disturbed metaphase, and disturbed anaphase-telophase in 1000 cells. Disturbed metaphase and disturbed anaphase-telophase were defined as deviating from the usual appearance of mitoses. Disturbed mitoses were assessed in 100 mitotic cells per slide.

Where [14] appears, read: treatment – control (basal level of micronuclei subtracted), same concentrations.
The mark [15] stands for this setting: 6 h, without S9, CBG 30 µM, CBD 15 µM, CBC 15 µM, CBDV 40 µM, CBN 15 µM.

Read-outs that look alike come from different tables or passages of the source.

Take `CCCCCc1cc(O)c2c(c1)OC(C)(CCC=C(C)C)C=C2` (centres unmarked) [CBC, cannabichromene]: in [1], the “Kinetochore (+) MNi, %” value worked out at 48.5%. Further, the “Kinetochore (+) induced MNi” value in data set [1] (setting [14]) was 69.7%. In addition, in data set [2], the “Mean Cmax concentration in plasma” value was 6.6 ng/mL. The Cmax in data set [2] (read-out: Mean Cmax concentration in plasma) is 21 nM. Besides, the “Multipolar and monopolar tubulin aggregation” value with TK6 cells [3] is “observed more frequently”. The “Cell cycle distribution, 6 h” value in the data set with TK6 cells [4] (setting [15]) is recorded as “no significant changes in the normal cell cycle distribution”. Besides, in the data set on TK6 cells [4] (TK6, CBC 15 µM, CBN 15 µM, 6 or 24 h), the “Cell cycle distribution (time not given)” value is reported as “did not observe a change in cell cycle distribution”. Also, in [5], the “BMDL (10th percentile)” value was 2.5 µM; the “4 h BMD50” value stood at 9.8 µM; the “BMDU (90th percentile)” value was 34.5 µM; the “Number of micronuclei with S9 mix vs without” value (“Number … vs without” below) was “reduced as well, but not significantly”. Besides, the Micronucleus induction entry in [5] is recorded as “significant induction of micronuclei”.

In the case of `C=C(C)[C@@H]1CCC(C)=C[C@H]1c1c(O)cc(CCC)cc1O` [CBDV, cannabidivarin], the Cell cycle effect entry in [6] is “induced cell cycle arrest”. The “Kinetochore (+) induced MNi” value in [1] (human) is 69.8%. For the same compound, the “DNA damage (comet assay)” value in [7] is reported as “had the same effect on the cells as CBD”. Moreover, the “Mean plasma Cmax” value in data set [8] is 7.4 ng/mL. For the same compound, in [8] (read-out: Mean plasma Cmax), the Cmax was 25.8 nM. Besides, in data set [9], the Micronucleus induction result is reported as “induced micronuclei only after metabolic activation”, the “Number … vs without” value is recorded as “significant rise in micronuclei frequency”, the “4 h BMD50” value is given as 15.3 µM and the “BMDL (10th percentile)” value came to 1.4 µM. In addition, the “BMDU (90th percentile)” value in data set [9] is 102.9 µM. Further, in the data set on TK6 cells [4] (human, 6 h, 40 µM), the “Cell cycle distribution, 6 h” value was “slight non-significant rise in cell percentage in the G1 phase” and the “Cell cycle distribution, absence or presence of metabolic enzymes” value is listed as “cell accumulation in the G1 phase”.

For `CCCCCc1cc(O)c(C/C=C(\C)CCC=C(C)C)c(O)c1` [CBG, cannabigerol], the “Kinetochore (+) induced MNi” value in [1] (human) is given as 61.5%. The Cell cycle effect result in data set [10] is “arresting cells in the G0/G1 phase”. In [11], the “Mean maximum concentration (Cmax) in blood” value is 6.9 ng/mL and the Cmax is 21.8 nM. In [9], the Micronucleus induction entry is recorded as “significant induction of micronuclei”, the “Number … vs without” value is “significant reduction in the number of micronuclei”, the “4 h BMD50” value was found to be 20.5 µM and the “BMDL (10th percentile)” value turned out to be 3.9 µM. Moreover, the “BMDU (90th percentile)” value in data set [9] is reported as 64.1 µM.

On to `CCCCCc1cc(O)c2c(c1)OC(C)(C)c1ccc(C)cc1-2` [CBN, cannabinol], for which the “Kinetochore (+) MNi, %” value in data set [1] is 46%. Besides, the “Kinetochore (+) induced MNi” value in data set [1] (setting [14]) is recorded as 63.3%. In addition, the Cmax in data set [11] is 37.4 nM. In the data set on TK6 cells [3], the “Multipolar and monopolar tubulin aggregation” value is reported as “observed more frequently”. In addition, in data set [12], the Cell cycle effect entry is “cell cycle arrest in either the G0/G1 phase or S phase”. Further, the “Cell cycle distribution, 6 h” value in the data set with TK6 cells [4] (setting [15]) was “no significant changes in the normal cell cycle distribution”. For the same compound, the Mitotic index result in the data set with TK6 cells [13] was “significantly decreased the mitotic index”. In addition, in [5], the “BMDL (10th percentile)” value is listed as 2.7 µM, the “4 h BMD50” value came out at 8.4 µM, the “BMDU (90th percentile)” value is 16.9 µM and the “Number … vs without” value was “significant reduction in the number of micronuclei”. In addition, the Micronucleus induction result in data set [5] was “significant induction of micronuclei”.

With `COS(C)(=O)=O` [MMS, methyl methane sulfonate, reference compound], in data set [1], the “Kinetochore (+) MNi, %” value is 38%. Further, the “Kinetochore (+) induced MNi” value in data set [1] (setting [14]) turned out to be 41.9%.
